The source of these data is patent US9512107B2, “Therapeutically active compositions and their methods of use” (Agios Pharmaceuticals, Inc., priority 2012, dated 2016).

The test system of assay [1] is U87MG pLVX-IDH2 R140Q-neo cells. The assay can be described thus: U87MG pLVX-IDH2 R140Q-neo cell based assay, 2-HG in media by LC-MS at 48 hours. The note with it: for IC50: Homo sapiens, U-87 MG. As for the experimental part: U87MG pLVX-IDH2 R140Q-neo cells are grown in T125 flasks in DMEM containing 10% FBS, 1× penicillin/streptomycin and 500 μg/mL G418. They are harvested by trypsin and seeded into 96 well white bottom plates at a density of 5000 cell/well in 100 μl/well in DMEM with 10% FBS. No cells are plated in columns 1 and 12. Cells are incubated overnight at 37° C. in 5% CO2. The next day compounds are made up at 2× concentration and 100 ul are added to each cell well. The final concentration of DMSO is 0.2% and the DMSO control wells are plated in row G. The plates are then placed in the incubator for 48 hours. At 48 hours, 100 ul of media is removed from each well and analyzed by LC-MS for 2-HG concentrations. The cell plate is placed back in the incubator for another 24 hours. At 72 hours post compound addition, 10 mL/plate of Promega Cell Titer Glo reagent is thawed and mixed. The cell plate is removed from the incubator and allowed to equilibrate to room temperature. Then 100 ul of reagent is added to each well of media. The cell plate is then placed on an orbital shaker for 10 minutes and then allowed to sit at room temperature for 20 minutes. The plate is then read for luminescence with an integration time of 500 ms to determine compound effects on growth inhibition.

A further assay addresses T1, IDH2 R140Q (Homo sapiens, UniProt P48735, R140Q).
T1 sequence (P48735 40-452 R140Q): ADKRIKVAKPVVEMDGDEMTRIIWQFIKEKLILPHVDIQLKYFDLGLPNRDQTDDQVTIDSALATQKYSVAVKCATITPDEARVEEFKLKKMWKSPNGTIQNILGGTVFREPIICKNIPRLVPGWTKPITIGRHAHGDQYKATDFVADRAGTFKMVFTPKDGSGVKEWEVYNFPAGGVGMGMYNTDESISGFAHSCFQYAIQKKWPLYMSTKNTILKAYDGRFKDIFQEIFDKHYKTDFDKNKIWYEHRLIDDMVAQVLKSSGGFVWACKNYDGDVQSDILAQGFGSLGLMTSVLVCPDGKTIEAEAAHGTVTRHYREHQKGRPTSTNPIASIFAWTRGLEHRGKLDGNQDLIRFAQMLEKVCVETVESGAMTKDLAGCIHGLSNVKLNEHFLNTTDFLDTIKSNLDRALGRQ
As to the kind of experiment: IDH2 R140Q enzymatic assay (cofactor depletion, similar format). The assay is classed as biochemical. Particulars: read-out: Enz R140Q. On the procedure:
[The source words this procedure for another variant and says it was used here with some conditions changed.] Compounds are assayed for IDH2 R172K inhibitory activity through a cofactor depletion assay. […] The reaction is terminated by the addition of a second enzyme, diaphorase, and a corresponding substrate, resazurin. Diaphorase reduces resazurin to the highly fluorescent resorufin with the concomitant oxidation of NADPH to NADP, both halting the IDH2 reaction by depleting the available cofactor pool and facilitating quantitation of the amount of cofactor remaining after a specific time period through quantitative production of an easily detected fluorophore.
The test compound is then incubated for one hour at room temperature with the enzyme; before starting the IDH2 reaction with the addition of 10 μl of substrate mix containing 50 μM NADPH and 6.3 mM α-KG in the buffer described above. After a further one hour of incubation at room temperature, the reaction is halted and the remaining NADPH measured through conversion of resazurin to resorufin by the addition of 25 μl Stop Mix (36 μg/ml diaphorase enzyme and 60 μM resazurin; in buffer).

Structures are written as SMILES.

As for `CC(C)Nc1nc(Nc2ccc(C3CC3)nc2)nc(-c2ccccc2)n1` [Compound 316, N^2-(6-cyclopropylpyridin-3-yl)-N^4-isopropyl-6-phenyl-1,3,5-triazine-2,4-diamine], the IC50 (in assay [1]; on IDH2 R140Q) was 100 to 1000 nM in each case.
For `CS(=O)(=O)c1cccc(Nc2nc(NC3CCC3)nc(-c3ccccc3F)n2)c1` [Compound 317, N^2-cyclobutyl-6-(2-fluorophenyl)-N^4-(3-(methylsulfonyl)phenyl)-1,3,5-triazine-2,4-diamine], the IC50 (in assay [1]; at IDH2 R140Q) was less than 100 nM each time.
Regarding `Fc1cncc(Nc2nc(NC3CCC3)nc(-c3ccccc3F)n2)c1` [Compound 318, N-Cyclobutyl-6-(2-fluoro-phenyl)-N′-(5-fluoro-pyridin-3-yl)-[1,3,5]triazine-2,4-diamine], the IC50 (in assay [1]; at IDH2 R140Q) was less than 100 nM in each case.
With `CC(C)(O)CNc1nc(Nc2ccnc(C(F)(F)F)c2)nc(-c2ccccc2F)n1` [Compound 319, 1-(4-(2-fluorophenyl)-6-(2-(trifluoromethyl)pyridin-4-ylamino)-1,3,5-triazin-2-ylamino)-2-methylpropan-2-ol], the IC50 in assay [1] is less than 100 nM; at IDH2 R140Q, 100 to 1000 nM.
The like results for `CC(C)CNc1nc(Nc2cncc(F)c2)nc(-c2ccccc2F)n1` [Compound 320, 6-(2-fluorophenyl)-N^2-(5-fluoropyridin-3-yl)-N^4-isobutyl-1,3,5-triazine-2,4-diamine] were, in that order, less than 100 nM and less than 100 nM.
The like results for `CC(C)Nc1nc(Nc2cncc(C#N)c2)nc(-c2ccccc2F)n1` [Compound 321, 5-(4-(2-fluorophenyl)-6-(isopropylamino)-1,3,5-triazin-2-ylamino)nicotinonitrile] were, in that order, less than 100 nM and less than 100 nM.
The like results for `Fc1cncc(Nc2nc(NC3CCC3)nc(-c3ccccn3)n2)c1` [Compound 322, N^2-cyclobutyl-N^4-(5-fluoropyridin-3-yl)-6-(pyridin-2-yl)-1,3,5-triazine-2,4-diamine] were, in that order, less than 100 nM and 100 to 1000 nM.
For `Fc1cncc(Nc2nc(NC3CCC3)nc(-c3cccc(Cl)n3)n2)c1` [Compound 323, 6-(6-chloropyridin-2-yl)-N^2-cyclobutyl-N^4-(5-fluoropyridin-3-yl)-1,3,5-triazine-2,4-diamine], the results for the IC50 (in assay [1]; at IDH2 R140Q) were less than 100 nM and 100 to 1000 nM, respectively.
Consider `CC(O)C(=O)Nc1nc(Nc2ccccc2)nc(-c2ccccc2)n1` (centres unmarked) [Compound 324, 2-hydroxy-N-(4-phenyl-6-(phenylamino)-1,3,5-triazin-2-yl)propanamide], for which the values for the IC50 (in assay [1]; at IDH2 R140Q) were 1000 to 10000 nM and 100 to 1000 nM, respectively.
Take `Fc1ccc(Nc2nc(NC3CCC3)nc(-c3cccc(Cl)n3)n2)cn1` [Compound 325, 6-(6-chloropyridin-2-yl)-N^2-cyclobutyl-N^4-(6-fluoropyridin-3-yl)-1,3,5-triazine-2,4-diamine]: the IC50 (in assay [1]; on IDH2 R140Q) was less than 100 nM in each case.
Take `CC(C)Nc1nc(Nc2cccc(S(C)(=O)=O)c2)nc(-c2cccc(Cl)n2)n1` [Compound 326, 6-(6-chloropyridin-2-yl)-N^2-isopropyl-N^4-(3-(methylsulfonyl)phenyl)-1,3,5-triazine-2,4-diamine]: the IC50 is less than 100 nM in assay [1] and 100 to 1000 nM on IDH2 R140Q.
The like results for `CC(C)Nc1nc(Nc2ccncc2)nc(-c2cccc(N)c2)n1` [Compound 327] were, in that order, 100 to 1000 nM and 100 to 1000 nM.
For the molecule `CC(C)Nc1nc(Nc2ccncc2)nc(-c2cccc(O)c2)n1` [Compound 328, 3-[4-Isopropylamino-6-(pyridin-4-ylamino)-[1,3,5]triazin-2-yl]-phenol], the IC50 (in assay [1]; at IDH2 R140Q) was less than 100 nM each time.
On to `CC(C)Nc1nc(Nc2cncc(C(F)(F)F)c2)nc(-c2ccccc2)n1` [Compound 329, N^2-isopropyl-6-phenyl-N^4-(5-(trifluoromethyl)pyridin-3-yl)-1,3,5-triazine-2,4-diamine], for which the IC50 (in assay [1]; on IDH2 R140Q) was less than 100 nM throughout.
Take `Clc1cncc(Nc2nc(NC3CCC3)nc(-c3ccccn3)n2)c1` [Compound 330, N^2-(5-chloropyridin-3-yl)-N^4-cyclobutyl-6-(pyridin-2-yl)-1,3,5-triazine-2,4-diamine]: the values for the IC50 (in assay [1]; on IDH2 R140Q) were less than 100 nM and 100 to 1000 nM, respectively.
The like results for `CNc1cccc(-c2nc(Nc3ccccc3)nc(NC(C)C)n2)n1` [Compound 331, N^2-isopropyl-6-(6-(methylamino)pyridin-2-yl)-N^4-phenyl-1,3,5-triazine-2,4-diamine] were, in that order, less than 100 nM and 100 to 1000 nM.
`CC(C)Nc1nc(Nc2cn(C)cn2)nc(-c2ccccc2)n1` [Compound 332, N^2-isopropyl-N^4-(1-methyl-1H-imidazol-4-yl)-6-phenyl-1,3,5-triazine-2,4-diamine]: in assay [1], the “Cell R140Q” value is on record as “No Fit”. Besides, the IC50 on IDH2 R140Q was more than 10000 nM.
Regarding `Cc1ncc(Nc2nc(NC(C)C)nc(-c3ccccc3)n2)cn1` [Compound 343, N^2-isopropyl-N^4-(2-methylpyrimidin-5-yl)-6-phenyl-1,3,5-triazine-2,4-diamine], the IC50 (in assay [1]; on IDH2 R140Q) was 100 to 1000 nM in each case.
Take `COC(=O)c1cc(Nc2nc(NC(C)C)nc(-c3ccccc3)n2)ccn1` [Compound 346]: the IC50 in assay [1] is 100 to 1000 nM; on IDH2 R140Q, less than 100 nM.
On to `O[C@H]1CCC[C@H]1Nc1nc(Nc2ccccc2)nc(-c2ccccc2)n1` [Compound 352, (1S,2R)-2-(4-phenyl-6-(phenylamino)-1,3,5-triazin-2-ylamino)cyclopentanol], for which the IC50 (in assay [1]; on IDH2 R140Q) was less than 100 nM in each case.
Take `CC(C)Nc1nc(Nc2cncnc2)nc(-c2cccc(Cl)n2)n1` [Compound 353, 6-(6-chloropyridin-2-yl)-N^2-isopropyl-N^4-(pyrimidin-5-yl)-1,3,5-triazine-2,4-diamine]: the IC50 was less than 100 nM in assay [1] and 100 to 1000 nM on IDH2 R140Q.
The like results for `CC(C)Nc1nc(Nc2ccnc(Cl)c2)nc(-c2cccc(Cl)n2)n1` [Compound 354, 6-(6-chloropyridin-2-yl)-N^2-(2-chloropyridin-4-yl)-N^4-isopropyl-1,3,5-triazine-2,4-diamine] were, in that order, less than 100 nM and 100 to 1000 nM.
The like results for `CC(C)Nc1nc(Nc2ccnc(C#N)c2)nc(-c2cccc(Cl)n2)n1` [Compound 355, 4-(4-(6-chloropyridin-2-yl)-6-(isopropylamino)-1,3,5-triazin-2-ylamino)picolinonitrile] were, in that order, less than 100 nM and 100 to 1000 nM.
The like results for `FC(F)(F)c1cc(Nc2nc(NC3COC3)nc(-c3cccc(Cl)n3)n2)ccn1` [Compound 356, 6-(6-Chloro-pyridin-2-yl)-N-oxetan-3-yl-N′-(2-trifluoromethyl-pyridin-4-yl)-[1,3,5]triazine-2,4-diamine] were, in that order, less than 100 nM and 100 to 1000 nM.
Take `Cc1cccc(-c2nc(Nc3cccc(S(C)(=O)=O)c3)nc(NC(C)C)n2)n1` [Compound 359, N^2-isopropyl-6-(6-methylpyridin-2-yl)-N^4-(3-(methylsulfonyl)phenyl)-1,3,5-triazine-2,4-diamine]: the IC50 (in assay [1]; at IDH2 R140Q) was 100 to 1000 nM in each case.
